Active and inactive are the calls of the source. The calls are words filed in the database; no cut-off is given here.
Columns and labels:
[1] = tested on: PC-9; assay: Antiproliferative activity against human PC9 cells assessed as reduction in cell viability incubated for 72 hrs by SRB assay; type: functional, cell-based; conditions: PC-9, 72 h
[2] = tested on: NCI-H1975; assay: Induction of apoptosis in human NCI-H1975 cells assessed as increase in cleaved PARP1 level at 140 nM incubated upto 72 hrs by immunoblotting analysis; type: functional, cell-based
[3] = biological target: DNA replication licensing factor MCM2 (Homo sapiens) (UniProt P49736); assay: Induction of ubiquitination of MCM2 in human NCI-H1975 cells incubated for 24 hrs by immunoblot analysis (reference value: 1); type: cell-based
Sequence of DNA replication licensing factor MCM2 (Homo sapiens) (P49736 whole entry): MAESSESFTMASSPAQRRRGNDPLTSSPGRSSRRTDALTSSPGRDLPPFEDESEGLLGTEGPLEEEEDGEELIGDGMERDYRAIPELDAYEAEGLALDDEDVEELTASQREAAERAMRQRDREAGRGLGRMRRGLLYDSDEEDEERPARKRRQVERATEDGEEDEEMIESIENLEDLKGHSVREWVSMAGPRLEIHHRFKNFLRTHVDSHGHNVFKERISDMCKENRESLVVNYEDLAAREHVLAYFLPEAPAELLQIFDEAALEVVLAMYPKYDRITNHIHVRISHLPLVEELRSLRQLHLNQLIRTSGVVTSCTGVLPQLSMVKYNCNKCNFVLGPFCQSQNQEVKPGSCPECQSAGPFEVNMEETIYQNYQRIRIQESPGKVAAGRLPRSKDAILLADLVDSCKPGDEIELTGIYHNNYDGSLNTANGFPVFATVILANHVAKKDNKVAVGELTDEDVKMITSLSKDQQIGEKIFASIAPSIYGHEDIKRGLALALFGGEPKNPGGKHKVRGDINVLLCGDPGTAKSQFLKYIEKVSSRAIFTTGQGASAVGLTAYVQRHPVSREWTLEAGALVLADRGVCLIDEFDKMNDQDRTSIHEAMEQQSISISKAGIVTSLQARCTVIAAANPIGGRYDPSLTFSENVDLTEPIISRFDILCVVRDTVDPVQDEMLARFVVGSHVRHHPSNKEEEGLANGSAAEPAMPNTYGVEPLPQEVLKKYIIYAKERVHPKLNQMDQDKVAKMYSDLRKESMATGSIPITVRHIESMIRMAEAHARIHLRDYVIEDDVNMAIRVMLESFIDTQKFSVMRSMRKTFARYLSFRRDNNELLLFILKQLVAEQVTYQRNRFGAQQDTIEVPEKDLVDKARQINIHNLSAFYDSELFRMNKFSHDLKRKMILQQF

[4] = biological target: T1, DNA replication licensing factor MCM6 (Homo sapiens) (UniProt Q14566); assay: Induction of ubiquitination of MCM6 in human NCI-H1975 cells incubated for 48 hrs by immunoblot analysis (reference value: 1); type: cell-based
T1 sequence (whole entry): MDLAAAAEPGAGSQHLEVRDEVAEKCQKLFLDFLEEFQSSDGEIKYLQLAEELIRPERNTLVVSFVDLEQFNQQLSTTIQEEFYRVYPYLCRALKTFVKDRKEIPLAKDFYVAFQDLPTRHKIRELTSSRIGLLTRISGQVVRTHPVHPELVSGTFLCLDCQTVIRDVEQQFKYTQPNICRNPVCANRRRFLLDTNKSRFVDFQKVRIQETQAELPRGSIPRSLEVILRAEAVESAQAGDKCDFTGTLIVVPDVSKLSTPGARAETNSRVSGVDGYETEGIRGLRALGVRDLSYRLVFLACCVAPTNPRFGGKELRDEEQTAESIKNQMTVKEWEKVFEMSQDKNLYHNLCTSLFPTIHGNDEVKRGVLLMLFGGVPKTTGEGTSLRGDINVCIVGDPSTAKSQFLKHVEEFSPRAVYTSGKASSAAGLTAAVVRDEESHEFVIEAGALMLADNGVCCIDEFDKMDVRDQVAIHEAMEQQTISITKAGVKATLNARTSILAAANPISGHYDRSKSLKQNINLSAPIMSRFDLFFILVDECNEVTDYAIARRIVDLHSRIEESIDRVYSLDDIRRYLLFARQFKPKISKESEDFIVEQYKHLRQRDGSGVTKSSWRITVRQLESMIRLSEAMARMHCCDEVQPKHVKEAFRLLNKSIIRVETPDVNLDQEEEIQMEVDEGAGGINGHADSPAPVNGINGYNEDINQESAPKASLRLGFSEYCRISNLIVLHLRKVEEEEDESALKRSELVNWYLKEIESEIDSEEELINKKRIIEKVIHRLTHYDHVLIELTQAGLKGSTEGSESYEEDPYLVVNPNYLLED

[5] = biological target: T2, DNA replication licensing factor MCM4 (Homo sapiens) (UniProt P33991); assay: Induction of ubiquitination of MCM4 in human NCI-H1975 cells incubated for 48 hrs by immunoblot analysis (reference value: 1); type: cell-based
T2 sequence (whole entry): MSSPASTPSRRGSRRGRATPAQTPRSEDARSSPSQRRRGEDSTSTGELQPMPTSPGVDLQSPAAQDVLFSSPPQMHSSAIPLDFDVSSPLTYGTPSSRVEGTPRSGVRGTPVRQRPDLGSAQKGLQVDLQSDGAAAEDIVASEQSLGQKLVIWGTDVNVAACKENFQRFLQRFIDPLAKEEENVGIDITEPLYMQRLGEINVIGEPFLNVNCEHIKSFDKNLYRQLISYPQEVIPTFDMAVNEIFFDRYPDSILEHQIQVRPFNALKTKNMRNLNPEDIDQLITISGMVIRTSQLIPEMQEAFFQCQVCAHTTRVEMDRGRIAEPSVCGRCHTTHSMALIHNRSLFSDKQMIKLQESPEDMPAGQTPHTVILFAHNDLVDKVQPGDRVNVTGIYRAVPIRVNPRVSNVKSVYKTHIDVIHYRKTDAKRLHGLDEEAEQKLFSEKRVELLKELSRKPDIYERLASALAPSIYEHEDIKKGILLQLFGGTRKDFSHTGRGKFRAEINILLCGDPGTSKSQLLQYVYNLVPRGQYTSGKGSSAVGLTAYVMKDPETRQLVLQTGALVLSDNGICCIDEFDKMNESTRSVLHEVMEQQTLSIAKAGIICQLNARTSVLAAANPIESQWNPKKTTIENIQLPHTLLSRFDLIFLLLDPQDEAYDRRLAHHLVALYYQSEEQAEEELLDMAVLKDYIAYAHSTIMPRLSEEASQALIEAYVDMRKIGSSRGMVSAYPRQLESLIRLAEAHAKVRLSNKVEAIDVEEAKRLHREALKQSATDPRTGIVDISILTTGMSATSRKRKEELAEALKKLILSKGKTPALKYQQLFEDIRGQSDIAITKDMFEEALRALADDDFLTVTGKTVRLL

[6] = biological target: T3, DNA replication licensing factor MCM5 (Homo sapiens) (UniProt P33992); assay: Induction of ubiquitination of MCM5 in human NCI-H1975 cells incubated for 48 hrs by immunoblot analysis (reference value: 1); type: cell-based
T3 sequence (whole entry): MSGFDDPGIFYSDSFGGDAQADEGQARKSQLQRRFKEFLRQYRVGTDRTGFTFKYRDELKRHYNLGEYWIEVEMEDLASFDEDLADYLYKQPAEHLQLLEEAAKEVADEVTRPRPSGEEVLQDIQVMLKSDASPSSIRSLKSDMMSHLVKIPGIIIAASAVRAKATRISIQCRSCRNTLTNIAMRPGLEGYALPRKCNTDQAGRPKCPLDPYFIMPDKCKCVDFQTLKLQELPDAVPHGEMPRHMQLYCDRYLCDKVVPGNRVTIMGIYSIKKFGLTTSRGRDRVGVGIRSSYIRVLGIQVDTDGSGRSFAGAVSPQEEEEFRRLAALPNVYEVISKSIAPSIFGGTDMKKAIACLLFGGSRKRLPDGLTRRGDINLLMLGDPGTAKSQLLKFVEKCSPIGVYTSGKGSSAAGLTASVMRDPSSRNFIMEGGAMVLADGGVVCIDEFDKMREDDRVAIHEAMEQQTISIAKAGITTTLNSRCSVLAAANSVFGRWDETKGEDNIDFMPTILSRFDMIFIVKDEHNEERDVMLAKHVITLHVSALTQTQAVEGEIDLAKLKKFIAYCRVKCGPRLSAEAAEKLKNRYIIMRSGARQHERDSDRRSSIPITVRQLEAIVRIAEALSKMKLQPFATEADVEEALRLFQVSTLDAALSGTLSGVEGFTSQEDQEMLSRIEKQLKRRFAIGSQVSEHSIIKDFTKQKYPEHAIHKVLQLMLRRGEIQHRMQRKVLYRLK

[7] = biological target: T1, DNA replication licensing factor MCM6 (Homo sapiens); assay: Induction of ubiquitination of MCM6 in human NCI-H1975 cells in presence of MG132 incubated for 48 hrs followed by MG132 addition and measured after 12 hrs by immunoblot analysis (reference value: 1.8); type: cell-based
[8] = biological target: DNA replication licensing factor MCM7 (Homo sapiens) (UniProt P33993); assay: Induction of ubiquitination of MCM7 in human NCI-H1975 cells at 140 nM in presence of MG132 incubated for 48 hrs followed by MG132 addition and measured after 12 hrs by immunoblot analysis; type: cell-based
Sequence of DNA replication licensing factor MCM7 (Homo sapiens) (P33993 whole entry): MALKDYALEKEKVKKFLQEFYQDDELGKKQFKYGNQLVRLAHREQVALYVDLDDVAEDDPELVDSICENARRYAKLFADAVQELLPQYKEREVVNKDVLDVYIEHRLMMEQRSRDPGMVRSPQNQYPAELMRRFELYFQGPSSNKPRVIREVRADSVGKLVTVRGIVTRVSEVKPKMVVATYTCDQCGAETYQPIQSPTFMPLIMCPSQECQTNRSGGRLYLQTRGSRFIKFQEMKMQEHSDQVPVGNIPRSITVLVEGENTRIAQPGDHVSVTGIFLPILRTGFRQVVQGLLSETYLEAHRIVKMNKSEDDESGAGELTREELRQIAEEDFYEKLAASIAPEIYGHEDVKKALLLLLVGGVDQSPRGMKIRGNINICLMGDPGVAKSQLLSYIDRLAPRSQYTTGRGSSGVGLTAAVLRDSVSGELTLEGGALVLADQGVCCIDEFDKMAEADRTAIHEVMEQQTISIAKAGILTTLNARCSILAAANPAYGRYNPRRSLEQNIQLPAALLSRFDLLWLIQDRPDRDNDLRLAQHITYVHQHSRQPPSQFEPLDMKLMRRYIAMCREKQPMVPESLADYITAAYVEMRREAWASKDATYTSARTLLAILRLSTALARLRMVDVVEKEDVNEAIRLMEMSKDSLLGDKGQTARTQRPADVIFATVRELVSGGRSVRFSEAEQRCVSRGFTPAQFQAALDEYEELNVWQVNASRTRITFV

Cc1oc2c(c1C(=O)NCCCn1ccnc1)C(=O)c1ccccc1C2=O
IC50 [1]: < 100 nM | Activity [2]: Active | Activity [3]: 0.7 | Activity [4]: 0.4 | Activity [5]: 1.1 | Activity [6]: 0.6 | Activity [7]: 0.5 | Activity [8]: Active

— ChEMBL document CHEMBL4602694, “Suppression of Drug-Resistant Non-Small-Cell Lung Cancer with Inhibitors Targeting Minichromosomal Maintenance Protein” (J Med Chem, 2020)
